Measurements: ChEMBL document CHEMBL1201862, “PubChem BioAssay data set” (2004)
Activity calls are given as the source filed them. Cut-off read from the data, not from the text of the source: actives have a measured IC50 and inactives only a lower limit.

What was measured:
SUMO-activating enzyme [1] = biological target: T1, SUMO-activating enzyme (Homo sapiens, UniProt Q9UBT2); test: blockers of UBC9-mediated SUMO conjugation – biochemical, AlphaScreen, SUMOylation inhibitor project, confirmation (AID 2018); format: functional
T1 sequence (Q9UBE0 whole entry): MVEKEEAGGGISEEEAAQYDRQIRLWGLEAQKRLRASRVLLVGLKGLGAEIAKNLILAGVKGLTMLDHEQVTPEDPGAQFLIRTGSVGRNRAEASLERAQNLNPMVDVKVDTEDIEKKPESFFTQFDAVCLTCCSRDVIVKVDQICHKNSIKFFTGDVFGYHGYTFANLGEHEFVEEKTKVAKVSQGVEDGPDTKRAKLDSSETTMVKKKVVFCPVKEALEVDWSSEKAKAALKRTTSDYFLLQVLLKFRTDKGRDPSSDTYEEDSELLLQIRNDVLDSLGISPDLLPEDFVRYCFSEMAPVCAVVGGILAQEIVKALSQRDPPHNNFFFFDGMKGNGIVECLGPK
T1 sequence (Q9UBT2 whole entry): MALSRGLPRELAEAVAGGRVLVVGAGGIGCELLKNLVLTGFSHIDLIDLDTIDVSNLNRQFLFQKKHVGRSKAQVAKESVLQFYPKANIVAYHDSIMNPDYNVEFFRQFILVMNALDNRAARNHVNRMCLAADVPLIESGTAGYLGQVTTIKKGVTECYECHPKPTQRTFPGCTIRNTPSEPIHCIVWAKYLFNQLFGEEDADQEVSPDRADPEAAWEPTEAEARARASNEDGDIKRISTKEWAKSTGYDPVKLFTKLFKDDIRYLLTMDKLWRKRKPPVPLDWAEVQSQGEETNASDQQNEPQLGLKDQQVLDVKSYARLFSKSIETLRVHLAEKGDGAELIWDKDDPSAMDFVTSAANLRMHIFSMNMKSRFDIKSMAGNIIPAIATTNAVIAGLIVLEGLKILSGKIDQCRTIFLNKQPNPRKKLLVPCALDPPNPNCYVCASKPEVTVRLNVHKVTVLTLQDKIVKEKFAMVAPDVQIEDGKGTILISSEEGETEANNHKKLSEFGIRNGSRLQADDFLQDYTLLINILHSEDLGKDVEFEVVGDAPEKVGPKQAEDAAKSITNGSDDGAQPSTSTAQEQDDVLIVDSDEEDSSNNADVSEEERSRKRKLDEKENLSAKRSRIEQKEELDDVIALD

[2] = biological target: T2, Sentrin-specific protease 7 (Homo sapiens, UniProt Q9BQF6); format: functional;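 note: Luminescence-based dose-response confirmation of ultra-high-throughput screening hits, measuring inhibition of SENP7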
T2 sequence (Q9BQF6 whole entry): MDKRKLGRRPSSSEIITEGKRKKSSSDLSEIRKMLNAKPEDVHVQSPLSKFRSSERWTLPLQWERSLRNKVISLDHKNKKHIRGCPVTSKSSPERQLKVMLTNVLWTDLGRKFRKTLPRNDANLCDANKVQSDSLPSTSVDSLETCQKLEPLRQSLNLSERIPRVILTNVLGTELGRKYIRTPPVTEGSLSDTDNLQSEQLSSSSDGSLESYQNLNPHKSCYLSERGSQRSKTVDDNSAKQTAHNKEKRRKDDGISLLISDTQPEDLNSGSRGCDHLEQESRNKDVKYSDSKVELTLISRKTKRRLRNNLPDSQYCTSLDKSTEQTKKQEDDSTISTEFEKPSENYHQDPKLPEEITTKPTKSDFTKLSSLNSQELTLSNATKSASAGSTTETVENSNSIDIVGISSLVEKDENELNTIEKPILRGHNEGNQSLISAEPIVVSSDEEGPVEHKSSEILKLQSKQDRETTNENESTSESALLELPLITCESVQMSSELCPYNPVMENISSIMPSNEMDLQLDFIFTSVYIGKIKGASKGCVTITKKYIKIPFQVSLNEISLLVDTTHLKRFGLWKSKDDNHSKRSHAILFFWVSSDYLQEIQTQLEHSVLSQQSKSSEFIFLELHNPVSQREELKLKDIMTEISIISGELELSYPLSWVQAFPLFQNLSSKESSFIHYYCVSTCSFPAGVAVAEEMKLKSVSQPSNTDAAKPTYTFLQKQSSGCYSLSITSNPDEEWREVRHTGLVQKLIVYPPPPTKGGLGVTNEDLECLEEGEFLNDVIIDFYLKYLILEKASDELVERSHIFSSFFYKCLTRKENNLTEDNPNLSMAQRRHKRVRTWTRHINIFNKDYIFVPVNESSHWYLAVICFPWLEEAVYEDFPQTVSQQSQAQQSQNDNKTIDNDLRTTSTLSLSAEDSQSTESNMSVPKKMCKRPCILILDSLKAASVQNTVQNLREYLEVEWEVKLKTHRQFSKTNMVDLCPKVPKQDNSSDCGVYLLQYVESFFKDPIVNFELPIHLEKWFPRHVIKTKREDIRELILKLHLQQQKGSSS

Caspase-3 = biological target: T3, Caspase-3 (Homo sapiens, UniProt P42574); format: functional;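 note: Dose-response selectivity test against caspase-3 for candidate inhibitors of sentrin-specific proteases (SENPs)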
T3 sequence (P42574 whole entry): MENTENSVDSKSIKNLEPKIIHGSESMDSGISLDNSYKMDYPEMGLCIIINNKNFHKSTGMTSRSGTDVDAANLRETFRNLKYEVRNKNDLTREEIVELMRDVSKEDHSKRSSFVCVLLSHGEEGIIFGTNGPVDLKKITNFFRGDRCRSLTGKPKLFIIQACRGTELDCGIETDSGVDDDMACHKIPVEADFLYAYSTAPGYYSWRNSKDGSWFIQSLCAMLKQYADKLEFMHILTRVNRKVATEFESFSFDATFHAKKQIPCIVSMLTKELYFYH

SUMO-activating enzyme [3] = biological target: T1, SUMO-activating enzyme; test: blockers of SAE1/SAE2–UBC9 SUMO transfer – biochemical, HTRF, uHTS, primary screen (AID 2006); format: protein-complex assay
[4] = biological target: T4, Sentrin-specific protease 6 (Homo sapiens, UniProt Q9GZR1); format: functional;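 note: Luminescence-based dose-response confirmatory assay of SENP6 inhibition, following up an ultra-high-throughput screen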
T4 sequence (Q9GZR1 whole entry): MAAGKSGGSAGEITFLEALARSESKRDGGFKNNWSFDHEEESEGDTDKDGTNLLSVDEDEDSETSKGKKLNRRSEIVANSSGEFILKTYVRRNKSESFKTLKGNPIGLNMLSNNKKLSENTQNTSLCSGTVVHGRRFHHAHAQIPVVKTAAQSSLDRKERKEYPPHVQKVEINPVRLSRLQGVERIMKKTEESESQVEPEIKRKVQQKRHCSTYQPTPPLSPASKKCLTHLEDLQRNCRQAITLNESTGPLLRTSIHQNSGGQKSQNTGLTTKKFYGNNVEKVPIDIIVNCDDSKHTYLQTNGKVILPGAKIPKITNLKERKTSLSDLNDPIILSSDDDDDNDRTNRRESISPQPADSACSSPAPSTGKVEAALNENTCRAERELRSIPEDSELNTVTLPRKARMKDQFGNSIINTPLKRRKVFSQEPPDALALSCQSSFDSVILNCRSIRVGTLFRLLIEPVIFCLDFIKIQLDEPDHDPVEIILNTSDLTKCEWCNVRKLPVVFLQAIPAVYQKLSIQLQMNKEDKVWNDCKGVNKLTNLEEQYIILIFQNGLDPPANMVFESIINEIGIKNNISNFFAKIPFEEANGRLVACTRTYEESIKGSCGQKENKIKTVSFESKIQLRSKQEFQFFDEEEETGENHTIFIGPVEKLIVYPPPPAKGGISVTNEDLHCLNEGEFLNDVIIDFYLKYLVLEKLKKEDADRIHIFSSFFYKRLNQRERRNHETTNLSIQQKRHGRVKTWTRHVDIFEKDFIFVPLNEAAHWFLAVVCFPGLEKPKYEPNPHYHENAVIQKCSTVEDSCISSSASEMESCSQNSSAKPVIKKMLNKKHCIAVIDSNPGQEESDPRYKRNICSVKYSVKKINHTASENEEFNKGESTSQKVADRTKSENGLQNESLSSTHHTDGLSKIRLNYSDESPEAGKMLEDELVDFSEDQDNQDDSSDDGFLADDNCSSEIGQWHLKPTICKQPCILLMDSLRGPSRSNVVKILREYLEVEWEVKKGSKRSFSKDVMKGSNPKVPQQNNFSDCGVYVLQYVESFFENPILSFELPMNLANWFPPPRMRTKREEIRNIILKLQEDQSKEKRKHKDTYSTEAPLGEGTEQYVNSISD

[5] = biological target: T5, Sentrin-specific protease 8 (Homo sapiens, UniProt Q96LD8); format: functional;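 note: luminescence read-out of SENP8 inhibition, dose-response confirmation following an ultra-high-throughput screen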
T5 sequence (Q96LD8 whole entry): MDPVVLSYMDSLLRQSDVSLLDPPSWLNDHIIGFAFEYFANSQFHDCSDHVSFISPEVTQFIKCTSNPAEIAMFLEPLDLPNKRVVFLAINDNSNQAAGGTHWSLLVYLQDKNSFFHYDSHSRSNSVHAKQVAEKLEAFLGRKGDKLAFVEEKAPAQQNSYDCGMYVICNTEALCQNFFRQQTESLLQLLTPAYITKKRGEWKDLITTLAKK

Measured: IC50

Nc1c(N2CCCC2)cc(Cl)c2nonc12
active: SUMO-activating enzyme [1] 2.16 µM | [2] 4.09 µM | Caspase-3 9.05 µM | SUMO-activating enzyme [3] 5.6 µM | [4] 3.02 µM | [5] 4.09 µM

O=C(NNc1cc(N2CCOCC2)nc(N2CCOCC2)n1)c1ccc([N+](=O)[O-])cc1
active: SUMO-activating enzyme [1] 6.57 µM | [2] 6.14 µM | Caspase-3 32.4 µM | SUMO-activating enzyme [3] 15.8 µM | [4] 6.72 µM | [5] 6.99 µM

Oc1ccc(/N=C/c2ccc(OCc3ccccc3)cc2)cc1
active: [2] 14.6 µM | Caspase-3 14.3 µM | [4] 16.4 µM | [5] 24.1 µM
